This data set deals with oligonucleotide made from sequence number 2. Briefly: Stability of the double strand (Tm value). It counts as physicochemical. The settings on record: double strand with oligonucleotide of sequence number 2; annealing buffer 10 mM sodium phosphate (pH 7.0), 1 M NaCl.

[TBDPS-acyc] = code of the source, not defined here; d = 2'-deoxy (DNA)

For “Comparative Example 2: Double-stranded oligonucleotide composed of the oligonucleotides made from sequence number 3 and sequence number 2 (chain 1 AAGGAAAAGAGGAAAGA; chain 2 TCTTTCCTCTTTTCCTT; DNA, backbone not given here)”, the Tm value is 57.7 °C.

“Example 10: Double-stranded oligonucleotide analog composed of the oligonucleotide analog of sequence number 1 and the oligonucleotide of sequence number 2 (chain 1 AAGGAAAAGAGGAAAGA; chain 2 TCTTTCCTCTTTTCCTT; chain 1: sugars from the 5' end d7 [TBDPS-acyc]1 d9, backbone not given here; chain 2: DNA, backbone not given here)”: the Tm value is 49.1 °C.

These data come from US20070249548A1, “Nucleoside Analog or Salts of the Same” (GIFU UNIVERSITY, priority 2004, published 2007).
